Results on 4 molecules are retold here after patent US20230416245A1, “ADENOSINE ANALOGS FOR THE TREATMENT OF DISEASE” (BIOINTERVENE, INC., priority 2020, published 2023).

The assay has as its target human adenosine A3 receptor (Homo sapiens (Human), UniProt P0DMS8). Nature of the assay: Intracellular cAMP levels (inhibition of forskolin-stimulated cAMP production). The class given is cell-based. The note with it: for EC50: CHO cells expressing human adenosine A3 receptors, forskolin 10 μM; for CAMP Efficacy (%): maximal response as percentage of the response produced by 100 nM IB-MECA. An excerpt: Example 31: Intracellular cAMP Levels
The method followed is that published in Yates L, Clark J H, Martin T J, James S, Broadley K J, Kidd E J. Radioligand binding and functional responses of ligands for human recombinant adenosine A3 receptors. Auton Autacoid Pharmacol. 2006 April; 26(2):191-200.
Materials and Cell Culture: Adenosine deaminase was obtained from Roche (Lewes, UK). Forskolin was obtained from Sigma-Aldrich (Poole, UK). The sources of other materials are provided above in Example 1. CHO-K1 cells stably transfected with the human adenosine A3 receptor were grown in Dulbecco's modified Eagles medium with nutrient mixture F12 containing NaHCO3 and Glutamax. Media was supplemented with 10% fetal calf serum, geneticin (G418; 0.67 mg/mL), hygromycin (500 μg/mL) and adenosine deaminase (1 U/mL). Cells were maintained at 37° C. with 5% CO2 in air.
cAMP Measurements: Intracellular cAMP production was measured directly using a non-acetylation cAMP enzyme immunoassay (Amersham Biosciences, Little Chalfont, UK). Cultured CHO cells expressing human adenosine A3 receptors were allowed to plate overnight in 96-well plates in culture medium containing adenosine deaminase. Twenty-four hours later, they were incubated with adenosine analogues or compounds of the invention (0.1 nM-1 μM) for 5 min at 37° C., followed by incubation with forskolin (10 μM) for 10 min. The cells were then lysed with 200 μL of lysis reagent 1 provided with the kit for 10 min to release intracellular cAMP. Aliquots of the supernatants were then transferred to a 96-well microtitre plate coated with donkey anti-rabbit IgG; 100-μL cAMP standards (12.5-3200 fmol/well) were also added to the microtitre plate; 100 μL of rabbit anti-cAMP antibody was added to all wells and incubated at 2-5° C. for 2 h. The antiserum was made up in lysis reagent 2, which sequesters the key component in lysis reagent 1 and ensures that cAMP is free for subsequent analysis. Then 50 μL of cAMP peroxidase conjugate was added to all wells and left to incubate for 60 min at 2-5° C. to allow competition for the antibody between the un-labelled and horse radish peroxidase (HRP)-labelled cAMP. Wells were then washed with buffer and 150 μL of enzyme substrate containing 3,3′,5,5′-tetramethylbenzidine/hydrogen peroxide in 20% (v/v) dimethylformamide was added to each well and left to incubate for 60 min on a Titramax 100 microtitre plate shaker (Heidolph Instruments, Schwabach, Germany) at room temperature for color development. The reaction was stopped by the addition of 100 μL of 1 M sulfuric acid and the optical density (OD) read at 450 nm on a spectrophotometric MRX microplate reader (Dynex Technologies, Chantilly, VA, USA).
Analyses: Each sample/standard was analyzed in duplicate and the resulting OD values averaged. The percent bound (B/Bo) for each standard and sample was calculated using the following relationship: […]
where B is the specific OD for standard/sample and Bo is the specific OD for the zero standard. A standard curve was generated by plotting % B/Bo as a function of the log fmol cAMP standard per well. The fmol per well value for cAMP in each sample was then read from the graph. The results are expressed as a percent of control agonist response: (measured response/control response)*100 in the presence of the compounds of the invention. Concentration-response curves for inhibition of cAMP production were constructed for all compounds of the invention and reference compounds. The EC50 values (concentration producing a half-maximal response) were determined by non-linear regression analysis of the concentration-response curves generated with mean replicate values using Hill equation curve fitting, according to the equation:
where Y=response, A=left asymptote of the curve, D=right asymptote of the curve, C=compound concentration, and C50=EC50, and nH=slope factor. […]

Sequence of human adenosine A3 receptor (P0DMS8 whole entry): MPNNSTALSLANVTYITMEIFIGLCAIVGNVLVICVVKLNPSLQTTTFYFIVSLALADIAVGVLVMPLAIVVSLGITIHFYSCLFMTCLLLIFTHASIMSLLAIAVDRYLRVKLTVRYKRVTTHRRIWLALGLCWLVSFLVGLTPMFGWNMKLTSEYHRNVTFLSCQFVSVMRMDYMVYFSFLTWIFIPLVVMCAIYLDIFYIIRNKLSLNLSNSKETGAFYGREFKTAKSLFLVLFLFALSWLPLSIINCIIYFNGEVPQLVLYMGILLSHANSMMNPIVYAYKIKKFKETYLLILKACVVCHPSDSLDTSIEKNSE

As to `Cc1c(Cl)nc2c(ncn2[C@H]2[C@H](O)[C@H](O)[C@@H]3C[C@@H]32)c1NCC(F)F` [Compound 60, (1R,2R,3S,4R,5S)-4-(5-chloro-7-((2,2-difluoroethyl)amino)-6-methyl-3H-imidazo[4,5-b]pyridin-3-yl)bicyclo[3.1.0]hexane-2,3-diol], the EC50 was more than 10000 nM and the “CAMP Efficacy (%)” value was determined as 1%.

`O[C@@H]1[C@H](O)[C@@H]2C[C@@H]2[C@H]1n1cnc2c(NCC(F)F)nc(Cl)nc21` [Compound 35, (1R,2R,3S,4R,5S)-4-(2-chloro-6-((2,2-difluoroethyl)amino)-9H-purin-9-yl)bicyclo[3.1.0]hexane-2,3-diol]: the concentration for a half-maximal effect (EC50) worked out at 1.33 nM and the “CAMP Efficacy (%)” value is recorded as 80.97%.

Regarding `O[C@@H]1[C@H](O)[C@@H]2C[C@@H]2[C@H]1n1cnc2c(NCC(F)F)cc(Cl)nc21` [Compound 40, (1R,2R,3S,4R,5S)-4-(5-chloro-7-((2,2-difluoroethyl)amino)-3H-imidazo[4,5-b]pyridin-3-yl)bicyclo[3.1.0]hexane-2,3-diol], the EC50 was found to be 8.6 nM and the “CAMP Efficacy (%)” value was 77.6%.

With `CCNc1cc(C#CC2CC2)nc2c1ncn2[C@H]1[C@H](O)[C@H](O)[C@@H]2C[C@@H]21` [Compound 46, (1R,2R,3S,4R,5S)-4-(5-(cyclopropylethynyl)-7-(ethylamino)-3H-imidazo[4,5-b]pyridin-3-yl)bicyclo[3.1.0]hexane-2,3-diol], the EC50 was more than 10000 nM and the “CAMP Efficacy (%)” value is given as 1%.

For orientation: EC50 means the concentration that produces a half-maximal response.
